Data published in article PMC6812009, “Covalent Aurora A regulation by the metabolic integrator coenzyme A” (Redox Biology, 2019).

How the values were obtained:
Assay in all cases: Kinase profiling screen (radioactive filter-binding assay)
Type in all cases: biochemical
Lck = Lck (Homo sapiens, UniProt P06239); conditions: 100 μM compound, 50 μM ATP; read-out: Kinase activity, % of activity in the absence of inhibitor
In short: (§1)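 Panel of 117 recombinant kinases; CoA, dpCoA, ADP each at 100 μM final, duplicates; model substrates, ATP at optimal level.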

EPH-B2 = biological target: T1, EPH-B2 (Homo sapiens, UniProt P29323); conditions: 100 μM compound, 20 μM ATP; read-out: Kinase activity, % of activity in the absence of inhibitor
T1 sequence (P29323 19-1055): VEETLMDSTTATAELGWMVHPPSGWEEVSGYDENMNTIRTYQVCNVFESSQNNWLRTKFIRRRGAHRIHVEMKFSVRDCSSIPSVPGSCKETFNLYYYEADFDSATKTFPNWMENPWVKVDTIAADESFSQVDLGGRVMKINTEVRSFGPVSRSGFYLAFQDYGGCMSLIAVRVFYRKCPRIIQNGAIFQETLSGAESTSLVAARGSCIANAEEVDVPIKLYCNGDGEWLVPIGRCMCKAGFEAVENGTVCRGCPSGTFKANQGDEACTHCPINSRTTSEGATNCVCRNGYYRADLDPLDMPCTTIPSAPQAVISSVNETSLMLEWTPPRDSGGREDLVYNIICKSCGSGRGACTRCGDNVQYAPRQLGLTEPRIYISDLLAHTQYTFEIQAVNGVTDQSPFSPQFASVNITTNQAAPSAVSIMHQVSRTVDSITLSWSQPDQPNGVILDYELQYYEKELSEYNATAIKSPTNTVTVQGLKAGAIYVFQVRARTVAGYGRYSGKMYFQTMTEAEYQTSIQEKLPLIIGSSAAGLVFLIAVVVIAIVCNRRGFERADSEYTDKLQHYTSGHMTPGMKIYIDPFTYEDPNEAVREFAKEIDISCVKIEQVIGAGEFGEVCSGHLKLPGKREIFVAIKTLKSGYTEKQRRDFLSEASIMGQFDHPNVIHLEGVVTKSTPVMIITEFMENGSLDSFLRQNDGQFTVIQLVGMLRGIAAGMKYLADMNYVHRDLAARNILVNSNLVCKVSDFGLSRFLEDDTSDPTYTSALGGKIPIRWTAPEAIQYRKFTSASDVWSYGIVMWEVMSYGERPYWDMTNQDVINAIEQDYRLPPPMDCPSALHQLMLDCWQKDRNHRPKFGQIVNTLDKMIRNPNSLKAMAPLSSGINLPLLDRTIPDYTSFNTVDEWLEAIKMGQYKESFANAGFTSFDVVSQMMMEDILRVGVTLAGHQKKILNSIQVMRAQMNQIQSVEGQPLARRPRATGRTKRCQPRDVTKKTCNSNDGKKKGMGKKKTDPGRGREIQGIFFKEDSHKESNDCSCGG
In short: as §1

PLK1 = PLK1 (Homo sapiens, UniProt P53350); conditions: 100 μM compound, 5 μM ATP; read-out: Kinase activity, % of activity in the absence of inhibitor
In short: as §1

PKA = PKA (Homo sapiens, UniProt P17612); conditions: for activity at 100 µM: 100 μM compound, 20 μM ATP, read-out: Kinase activity, % of activity in the absence of inhibitor
In short: as §1

ERK1 = ERK1 (Homo sapiens, UniProt P27361); conditions: 100 μM compound, 5 μM ATP; read-out: Kinase activity, % of activity in the absence of inhibitor
In short: as §1

IKKε = biological target: T2, IKKε (Homo sapiens, UniProt Q14164); conditions: 100 μM compound, 50 μM ATP; read-out: Kinase activity, % of activity in the absence of inhibitor
T2 sequence (Q14164 1-716): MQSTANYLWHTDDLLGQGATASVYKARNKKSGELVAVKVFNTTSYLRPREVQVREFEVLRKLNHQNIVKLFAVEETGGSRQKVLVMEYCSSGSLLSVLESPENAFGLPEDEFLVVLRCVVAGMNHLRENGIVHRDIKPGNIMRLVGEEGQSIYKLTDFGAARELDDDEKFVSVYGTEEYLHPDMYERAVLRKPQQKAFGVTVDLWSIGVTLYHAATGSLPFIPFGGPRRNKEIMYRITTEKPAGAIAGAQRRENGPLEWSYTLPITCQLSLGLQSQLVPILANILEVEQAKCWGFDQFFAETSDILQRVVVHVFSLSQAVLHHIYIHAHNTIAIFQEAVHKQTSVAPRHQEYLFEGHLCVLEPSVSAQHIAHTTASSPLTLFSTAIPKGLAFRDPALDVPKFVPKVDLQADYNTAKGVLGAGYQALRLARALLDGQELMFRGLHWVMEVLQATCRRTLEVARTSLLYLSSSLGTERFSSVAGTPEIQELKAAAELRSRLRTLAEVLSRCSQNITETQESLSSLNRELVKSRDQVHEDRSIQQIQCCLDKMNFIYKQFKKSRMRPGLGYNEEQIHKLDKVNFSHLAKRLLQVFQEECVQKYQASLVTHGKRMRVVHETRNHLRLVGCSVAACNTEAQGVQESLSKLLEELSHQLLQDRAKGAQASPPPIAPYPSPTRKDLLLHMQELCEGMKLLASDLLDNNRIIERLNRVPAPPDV
In short: as §1

Aurora A = biological target: T3, Aurora A (Homo sapiens, UniProt O14965); conditions: for activity at 100 µM: 100 μM compound, 5 μM ATP, read-out: Kinase activity, % of activity in the absence of inhibitor
T3 sequence (O14965 1-403): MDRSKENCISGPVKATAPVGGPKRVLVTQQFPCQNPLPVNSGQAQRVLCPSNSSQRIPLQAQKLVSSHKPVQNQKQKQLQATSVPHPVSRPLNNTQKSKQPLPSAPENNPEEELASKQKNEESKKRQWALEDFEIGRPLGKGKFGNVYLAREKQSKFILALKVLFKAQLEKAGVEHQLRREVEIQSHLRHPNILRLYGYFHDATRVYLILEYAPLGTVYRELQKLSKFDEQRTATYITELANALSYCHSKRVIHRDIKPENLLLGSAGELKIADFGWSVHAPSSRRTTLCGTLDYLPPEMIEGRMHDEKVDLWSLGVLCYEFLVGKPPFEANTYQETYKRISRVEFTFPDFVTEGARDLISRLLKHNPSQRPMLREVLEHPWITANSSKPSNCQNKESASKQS
In short: as §1

Chain of PLK1 (P53350 whole entry): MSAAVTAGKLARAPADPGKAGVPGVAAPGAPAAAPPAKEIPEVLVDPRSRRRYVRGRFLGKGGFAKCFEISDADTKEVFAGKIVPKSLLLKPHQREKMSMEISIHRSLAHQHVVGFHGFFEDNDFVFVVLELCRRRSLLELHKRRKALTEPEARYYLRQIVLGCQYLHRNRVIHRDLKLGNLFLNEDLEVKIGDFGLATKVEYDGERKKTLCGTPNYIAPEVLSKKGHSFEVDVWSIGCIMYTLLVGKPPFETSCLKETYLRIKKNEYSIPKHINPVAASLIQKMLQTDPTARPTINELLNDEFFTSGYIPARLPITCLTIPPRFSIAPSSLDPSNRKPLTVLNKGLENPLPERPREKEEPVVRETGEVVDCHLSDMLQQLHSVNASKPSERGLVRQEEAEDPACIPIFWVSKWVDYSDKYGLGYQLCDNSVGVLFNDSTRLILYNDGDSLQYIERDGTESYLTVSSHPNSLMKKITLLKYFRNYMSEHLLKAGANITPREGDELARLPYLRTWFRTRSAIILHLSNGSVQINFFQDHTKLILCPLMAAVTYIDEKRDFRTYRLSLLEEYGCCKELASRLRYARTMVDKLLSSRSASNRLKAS
Chain of ERK1 (P27361 whole entry): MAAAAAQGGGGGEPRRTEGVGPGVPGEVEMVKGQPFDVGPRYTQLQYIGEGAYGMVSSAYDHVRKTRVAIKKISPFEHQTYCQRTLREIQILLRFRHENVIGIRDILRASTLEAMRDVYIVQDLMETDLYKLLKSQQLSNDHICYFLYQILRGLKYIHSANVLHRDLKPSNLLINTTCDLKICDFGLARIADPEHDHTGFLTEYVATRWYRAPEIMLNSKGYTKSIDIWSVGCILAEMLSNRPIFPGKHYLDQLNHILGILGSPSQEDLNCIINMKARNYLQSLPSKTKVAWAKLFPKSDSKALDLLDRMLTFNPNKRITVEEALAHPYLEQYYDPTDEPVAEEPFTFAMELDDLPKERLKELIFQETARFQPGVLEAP
Chain of Lck (P06239 whole entry): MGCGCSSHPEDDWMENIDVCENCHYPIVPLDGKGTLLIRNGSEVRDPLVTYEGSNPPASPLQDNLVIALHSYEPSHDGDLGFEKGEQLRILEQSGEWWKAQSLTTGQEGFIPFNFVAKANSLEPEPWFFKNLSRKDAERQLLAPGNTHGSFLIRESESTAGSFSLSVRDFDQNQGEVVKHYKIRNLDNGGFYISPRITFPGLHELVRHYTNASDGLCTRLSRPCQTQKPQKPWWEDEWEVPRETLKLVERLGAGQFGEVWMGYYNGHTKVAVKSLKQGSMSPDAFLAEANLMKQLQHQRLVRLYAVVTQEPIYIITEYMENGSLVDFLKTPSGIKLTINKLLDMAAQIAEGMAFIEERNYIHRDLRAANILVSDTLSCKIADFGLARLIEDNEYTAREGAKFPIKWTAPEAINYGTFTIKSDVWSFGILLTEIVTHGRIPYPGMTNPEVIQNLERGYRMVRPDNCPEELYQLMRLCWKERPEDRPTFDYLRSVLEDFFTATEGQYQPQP

Structure (SMILES)	activity at 100 µM (Lck)	activity at 100 µM (EPH-B2)	activity at 100 µM (PLK1)	activity at 100 µM (PKA)	activity at 100 µM (ERK1)	activity at 100 µM (IKKε)	activity at 100 µM (Aurora A)	PKA inhibition in vitro (PKA; kinase profiling, 100 μM)	inhibition at 100 µM (Aurora A; at 100 μM, n = 3)
Nc1ncnc2c1ncn2C1OC(COP(=O)(O)OP(=O)(O)O)C(O)C1O (centres unmarked) [ADP]	35.1%	14.3%	52.2%	27.8%	67.7%	73.8%	38%		
CC(C)(COP(=O)(O)OP(=O)(O)OCC1OC(n2cnc3c(N)ncnc32)C(O)C1O)C(O)C(=O)NCCC(=O)NCCS (centres unmarked) [dpCoA, dephospho-CoA]	69%	91.1%	100%	81.3%	114%	91.4%	29.9%		
CC(C)(COP(=O)(O)OP(=O)(O)OC[C@H]1O[C@@H](n2cnc3c(N)ncnc32)[C@H](O)[C@@H]1OP(=O)(O)O)[C@@H](O)C(=O)NCCC(=O)NCCS [CoA, Coenzyme A]	100%	117%	101%	98.9%	118%	125%	13.4%	not detected	87%
